In assay [1] the target is T1, CDK7 (Homo sapiens, UniProt P50613).
T1 construct: endogenous in cells; host or cells: Jurkat cells
The experiment in a line: Rescue of compound-induced CDK7 degradation in Jurkat cells (ligand and proteasome dependence), immunoblot. The format is cell-based. The settings on record: for rescue of the CDK7 degradation induced by bispecific compound 3 / rescue of the CDK7 degradation induced by bispecific compound 20: Jurkat cells pretreated 2 h (10 μM YKL-5-124, 10 μM DGY-05-180, 0.2 μM Bortezomib, 1 μM MLN4924); for rescue of the CDK7 degradation induced by bispecific compound 3: then 1 μM compound 3 for 4 h; for rescue of the CDK7 degradation induced by bispecific compound 20: then 1 μM compound 20 for 4 h; for dependence of the induced CDK7 degradation: Jurkat cells, 1 μM compound for 4 h after 2 h pretreatment with competitor or pathway inhibitor. As for the experimental part: (§1) Jurkat cells were treated with DMSO or 1 μM of compounds 1-26 for 6 hours. Cells were then lysed in radioimmunoprecipitation assay (RIPA) buffer (Sigma® Life Science) containing protease/phosphatase inhibitor cocktail (Roche). The protein concentrations were measured by bicinchoninic acid assay (BCA) analysis (Pierce™). Equal amounts of protein were resolved by 4-12% Tris-Base gels (Invitrogen™), and then transferred to the immunoblot polyvinylidene difluoride (PVDF) membrane (BioRad), and immunoblotted with primary antibodies against CDK7 (cell signaling) and glyceraldehyde 3-phosphate dehydrogenase (GAPDH) (Cell Signaling Technology®), and then immunoblotted with IRDye®800-labeled goat anti-rabbit immunoglobulin G (IgG) and IRDye®680-labeled goat anti-mouse IgG (LI-COR®) secondary antibodies. The membranes were detected on an Odyssey® CLx system.
Jurkat cells were pretreated with 10 μM YKL-5-124 (the parental compound and known CDK7 inhibitor), 10 μM DGY-05-180 (VHL ligand), 0.2 μM Bortezomib (a proteasome inhibitor available from, e.g., Millipore Sigma, Cat. No. 179324-69-7, Burlington, MA), and 1 μM MLN4924 (a neddylation inhibitor available from, e.g., MedChemExpress (MCE®), Cat. No. HY-70062, Monmouth Junction, NJ), for 2 h, and then treated with 1 μM compound 3 or 20 for 4 h. Cells were lysed and immunoblotted as described in Example 27 with antibodies to CDK7 and GAPDH. The structures of YKL-5-124, DGY-05-180, Bortezomib and MLN4924 are set forth below.

Assay [2] addresses T1, CDK7. Description: CDK7 degradation in Jurkat cells by immunoblot. Format: cell-based. The settings on record: 1 μM compound, 6 hours, vs DMSO. Here is the method: as §1
On the technique in general: A western blot detects proteins with antibodies after separation by electrophoresis.

The structures appear in SMILES notation.

T1 sequence (P50613 2-346 limits assumed): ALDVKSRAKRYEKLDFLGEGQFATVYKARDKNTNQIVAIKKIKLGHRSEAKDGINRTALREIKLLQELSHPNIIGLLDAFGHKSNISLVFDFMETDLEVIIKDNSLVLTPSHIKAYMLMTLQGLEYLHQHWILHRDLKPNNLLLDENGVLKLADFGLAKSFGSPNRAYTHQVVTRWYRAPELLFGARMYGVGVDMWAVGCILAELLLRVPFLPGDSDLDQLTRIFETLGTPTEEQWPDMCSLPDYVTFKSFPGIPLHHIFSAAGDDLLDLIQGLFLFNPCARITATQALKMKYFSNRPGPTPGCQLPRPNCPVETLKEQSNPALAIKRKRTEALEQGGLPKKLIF
T1 sequence (P51946 whole entry partner): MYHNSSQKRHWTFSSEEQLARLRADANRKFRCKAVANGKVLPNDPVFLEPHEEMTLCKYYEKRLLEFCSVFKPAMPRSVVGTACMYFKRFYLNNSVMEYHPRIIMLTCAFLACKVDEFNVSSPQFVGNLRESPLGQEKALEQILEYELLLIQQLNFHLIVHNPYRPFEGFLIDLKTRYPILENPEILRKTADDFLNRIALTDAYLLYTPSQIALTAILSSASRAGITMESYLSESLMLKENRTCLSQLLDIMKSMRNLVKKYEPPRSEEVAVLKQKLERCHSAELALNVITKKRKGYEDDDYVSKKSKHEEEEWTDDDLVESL
T1 sequence (P51948 whole entry partner): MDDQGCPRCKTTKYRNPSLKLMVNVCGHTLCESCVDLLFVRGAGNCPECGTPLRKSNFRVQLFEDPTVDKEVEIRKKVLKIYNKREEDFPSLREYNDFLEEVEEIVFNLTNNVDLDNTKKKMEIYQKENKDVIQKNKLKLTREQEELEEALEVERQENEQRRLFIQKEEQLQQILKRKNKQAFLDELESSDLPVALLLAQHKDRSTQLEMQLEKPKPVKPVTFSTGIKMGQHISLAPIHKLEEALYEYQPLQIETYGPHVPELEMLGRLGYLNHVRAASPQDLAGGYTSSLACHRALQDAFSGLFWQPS

For the compound `CC(C)C[C@H](NC(=O)[C@H](Cc1ccccc1)NC(=O)c1cnccn1)B(O)O` [Bortezomib], at CDK7 [1], the “rescue of the CDK7 degradation induced by bispecific compound 3” value (“rescue … by bispecific compound 3” below) is “rescued the CDK7 degradation” and the “rescue of the CDK7 degradation induced by bispecific compound 20” value (“rescue … by bispecific compound 20” for short) is on record as “rescued the CDK7 degradation”.

For the compound `Cc1ncsc1-c1ccc([C@H](C)NC(=O)[C@@H]2C[C@@H](O)CN2C(=O)[C@@H](NC(=O)CCCNC(=O)c2ccc(C(=O)Nc3n[nH]c4c3CN(C(=O)N[C@H](CN(C)C)c3ccccc3)C4(C)C)cc2)C(C)(C)C)cc1` [Compound 3, N1-(5-(((S)-2-(dimethylamino)-1-phenylethyl)carbamoyl)-6,6-dimethyl-1,4,5,6-tetrahydropyrrolo[3,4-c]pyrazol-3-yl)-N4-(4-(((S)-1-((2S,4R)-4-hydroxy-2-(((S)-1-(4-(4-methylthiazol-5-yl)phenyl)ethyl)carbamoyl)pyrrolidin-1-yl)-3,3-dimethyl-1-oxobutan-2-yl)amino)-4-oxobutyl)terephthalamide], on CDK7 [2], the “degradation of CDK7 (immunoblot)” value is “induced the degradation of CDK7”. The “dependence of the induced CDK7 degradation” value at CDK7 [1] was “both ligand- and proteasome-dependent”.

As for `Cc1ncsc1-c1ccc([C@H](C)NC(=O)[C@@H]2C[C@@H](O)CN2C(=O)[C@@H](NC(=O)CCCCNC(=O)c2ccc(C(=O)Nc3n[nH]c4c3CN(C(=O)N[C@H](CN(C)C)c3ccccc3)C4(C)C)cc2)C(C)(C)C)cc1` [Compound 20, N^1-(5-(((S)-2-(dimethylamino)-1-phenylethyl)carbamoyl)-6,6-dimethyl-1,4,5,6-tetrahydropyrrolo[3,4-c]pyrazol-3-yl)-N^4-(5-(((S)-1-((2S,4R)-4-hydroxy-2-(((S)-1-(4-(4-methylthiazol-5-yl)phenyl)ethyl)carbamoyl)pyrrolidin-1-yl)-3,3-dimethyl-1-oxobutan-2-yl)amino)-5-oxopentyl)terephthalamide], the “degradation of CDK7 (immunoblot)” value on CDK7 [2] is reported as “induced the degradation of CDK7”. The “dependence of the induced CDK7 degradation” value on CDK7 [1] was “both ligand- and proteasome-dependent”.

As for `NS(=O)(=O)OC[C@@H]1C[C@@H](n2ccc3c(N[C@H]4CCc5ccccc54)ncnc32)C[C@@H]1O` [MLN4924], on CDK7 [1], the “rescue … by bispecific compound 3” value is reported as “rescued the CDK7 degradation” and the “rescue … by bispecific compound 20” value is “rescued the CDK7 degradation”.

Take `C=CC(=O)Nc1ccc(C(=O)Nc2n[nH]c3c2CN(C(=O)N[C@H](CN(C)C)c2ccccc2)C3(C)C)cc1` [YKL-5-124]: at CDK7 [1], the “rescue … by bispecific compound 3” value is “rescued the CDK7 degradation” and the “rescue … by bispecific compound 20” value was “rescued the CDK7 degradation”.

Values taken from patent publication US12491251B2, “Degraders of cyclin-dependent kinase 7 (CDK7) and uses thereof” (DANA-FARBER CANCER INSTITUTE, INC., priority 2019, dated 2025).
